Assay results: patent US7732622B2, “Naphthalene derivatives” (Glaxo Group Limited, priority 2001, dated 2010)

Target: T1, human EP4 receptor (Homo sapiens, UniProt P35408)
T1 construct: expressed in transfected cells; host or cells: CHO cells infected with recombinant Semliki Forest Virus (SFV-1) particles; membranes prepared
Assay: Human EP4 Scintillation Proximity Assay (radioligand binding)
Settings: not given
Protocol: Quantification of radioligand binding by scintillation proximity assay (SPA) is a long-established principle. Briefly, the affinity of novel compounds for a receptor is assessed by the specific competition between known quantities of radiolabelled ligand and novel compound for that receptor. Increasing concentrations of novel compound reduce the amount of radiolabel that binds to the receptor. This gives rise to a diminishing scintillation signal from SPA beads coated with membranes that bear the receptor. The signal may be detected with a suitable scintillation counter and the data generated may be analysed with suitable curve-fitting software.
The human EP4 SPA assay (hereafter referred to as ‘the assay’) utilises membranes prepared from Chinese Hamster Ovary (CHO cells) infected with Semliki Forest Virus (SFV). Genetically engineered SFV-1 viral particles containing the genetic sequence of the human EP4 receptor were used to infect CHO cells resulting in expression of the receptor protein in cellular membranes. Cells washed free of media are homogenised in a pH-buffered medium containing peptidase inhibitors. A suitable buffer is of the following composition: 50 mM HEPES, 1 mM EDTA, 25 μg/ml bacitracin, 100 μM leupeptin, 1 mM PMSF, 2 μM Pepstatin A, pH adjusted to 7.4 with KOH. Following removal of cell debris by a low-speed centrifugation, a pellet of membranes is prepared by a high-speed (48000 g) centrifugation of the resulting supernatant. Membrane suspensions such as that described may be stored at −80° C. until used.
For assay, membranes expressing human EP4 receptors are diluted in a pH-buffered medium and mixed with SPA beads coated with a suitable substance to facilitate the adhesion of membranes to the beads. The concentrations of membrane protein and SPA beads chosen should result in SPA binding signal of at least 300 corrected counts per minute (CCPM) when tritiated radioligand at a concentration close to its Kd (affinity value) is combined with the mixture. Non-specific binding (nsb) may be determined by competition between the radiolabelled ligand and a saturating concentration of unlabelled ligand. In order to quantify the affinity of novel EP4 receptor ligands, compounds are diluted in a stepwise manner across the wells of a 96-well plate. Radioligand, novel compound, and unlabelled ligand are then added to a 96-well plate suitable for the measurement of SPA binding signals prior to the addition of bead/membrane mixture to initiate the binding reaction. Equilibrium may be achieved by incubation at room temperature for 120 minutes prior to scintillation counting. The data so generated may be analysed by means of a computerised curve-fitting routine in order to quantify the concentration of compound that displaces 50% of the specific radioligand binding (IC50). The affinity (pKi) of the novel compound may be calculated from the IC50 by application of the Cheng-Prusoff correction. Suitable reagents and protocols are: reaction buffer containing 50 mM HEPES, 10 mM MgCl2, pH adjusted to 7.4 with KOH; SPA beads coated with wheatgerm agglutinin; 1.25 nM [^3H]-prostaglandin E2 as radioligand; 10 μM prostaglandin E2 as unlabelled ligand; a three-fold dilution series of novel compound starting at 10 μM and ending at 0.3 nM is adequate.

T1 sequence (P35408 whole entry): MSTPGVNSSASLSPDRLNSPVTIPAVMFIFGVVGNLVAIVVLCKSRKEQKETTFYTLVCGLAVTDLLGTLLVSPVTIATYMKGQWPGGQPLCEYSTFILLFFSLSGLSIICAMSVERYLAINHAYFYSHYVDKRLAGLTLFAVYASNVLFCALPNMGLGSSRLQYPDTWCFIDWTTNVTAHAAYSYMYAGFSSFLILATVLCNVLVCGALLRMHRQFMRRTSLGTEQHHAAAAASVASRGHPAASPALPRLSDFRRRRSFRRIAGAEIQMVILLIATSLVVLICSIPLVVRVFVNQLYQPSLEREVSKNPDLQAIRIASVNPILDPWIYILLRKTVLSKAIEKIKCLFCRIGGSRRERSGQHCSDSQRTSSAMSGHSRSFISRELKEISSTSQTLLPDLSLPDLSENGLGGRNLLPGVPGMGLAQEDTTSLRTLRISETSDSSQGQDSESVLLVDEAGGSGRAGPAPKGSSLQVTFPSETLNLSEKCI

Row | Ki | Structure (SMILES)
1 | ≤ 1000 nM | CC(C)Oc1c2c(c(OC(C)C)c3ccccc13)C(=O)N(c1ccc(CC(=O)O)cc1)C2 [Example 4, [4-(4,9-Di-isopropoxy-1-oxo-1,3-dihydro-2H-benzo[f]isoindol-2-yl)phenyl]acetic acid]
2 | ≤ 1000 nM | CCCOc1c2c(c(OCCC)c3ccccc13)C(=O)N(c1ccc(CC(=O)O)cc1)C2 [Example 5, [4-(4,9-Dipropoxy-1-oxo-1,3-dihydro-2H-benzo[f]isoindol-2-yl)phenyl]acetic acid]
3 | ≤ 1000 nM | CCOc1c2c(c(OCC)c3ccccc13)C(=O)N(c1ccc(CC(=O)O)cc1)C2=O [Example 12, [4-(4,9-Diethoxy-1,3-dioxo-1,3-dihydro-2H-benzo[f]isoindol-2-yl)phenyl]acetic acid]

Same assay, conditions: SPA, membranes of CHO cells expressing human EP4 receptor, 1.25 nM [3H]-prostaglandin E2 as radioligand; pKi from IC50 by Cheng-Prusoff correction; read-out: pKi at EP4 receptors (converted)

Row | Ki | Structure (SMILES)
4 | ≤ 1000 nM | COc1c2c(c(OC)c3ccccc13)C(=O)N(c1ccc(CC(=O)O)cc1)C2 [Example 1, [4-(4,9-Dimethoxy-1-oxo-1,3-dihydro-2H-benzo[f]isoindol-2-yl)phenyl]acetic acid]
5 | ≤ 1000 nM | CC(C)Oc1c2c(c(OC(C)C)c3ccccc13)C(=O)N(c1ccc(CC(=O)O)cc1)C2=O [Example 13, [4-(4,9-Di-isopropoxy-1,3-dioxo-1,3-dihydro-2H-benzo[f]isoindol-2-yl)phenyl]acetic acid]
6 | ≤ 1000 nM | CCCOc1c2c(c(OCCC)c3ccccc13)C(=O)N(c1ccc(CC(=O)O)cc1)C2=O [Example 14, [4-(4,9-Dipropoxy-1,3-dioxo-1,3-dihydro-2H-benzo[f]isoindol-2-yl)phenyl]acetic acid]
7 | ≤ 1000 nM | CCOc1c2c(c(OC(C)C)c3ccccc13)C(=O)N(c1ccc(CC(=O)O)cc1)C2=O [Example 17, [4-(4-Ethoxy-9-isopropoxy-1,3-dioxo-1,3-dihydro-2H-benzo[f]isoindol-2-yl)phenyl]acetic acid]
